A word on the viability: it is the share of living cells, or the viability signal relative to a control.

SMILES strings stand for the structures.

The text below walks through data of paper PMC10490226, “Synthesis, Characterization, and Anticancer Activity of New N,N′-Diarylthiourea Derivative against Breast Cancer Cells” (Molecules, 2023).

Series [1] has as its system MCF-7 cells. The experiment in a line: DNA fragmentation analysis by comet assay. It counts as cell-based, human. How it is done: Prior to subjecting the MCF-7 cells to compound 4, they were exposed to a caspase-3 inhibitor (Z-DEVD-FMK) in order to assess the potential involvement of caspase-3 activity in the DNA damage induced by compound 4. The occurrence of DNA damage was assessed in MCF-7 cells treated with compound 4 only (IC50 concentration) and MCF-7 cells that were pretreated with Z-DEVD-FMK (50 μM) for 1 h and then treated with compound 4 (IC50 concentration) for 24 h, utilizing the comet test. Fragmentation causes the broken DNA to be separated from the healthy cellular DNA, generating a comet tail that can be identified under a fluorescence microscope. Comet parameters were calculated using TriTek Comet Score™ software (TriTek Corp., Herndon, VA, USA), following a computerized image analysis system that recorded 100 photographs of randomly shaped comets for each slide. The tail moment and tail DNA, two often-employed markers, were combined for data finding. The Olive tail moment (OTM) has been honed to be the most precise method for assessing DNA damage. In accordance with the following Equation (2), its value can be determined by the tail’s DNA concentration and DNA mobility. OTM = quantity of tail moment × quantity of tail DNA/100(2)

For series [2], the system named is MCF-7 cells. The experiment in a line: Lactate dehydrogenase (LDH) leakage test (ELISA). The format is cell-based, human. To be noted: untreated control 85.35 ± 4.2 U/L, p < 0.001. The procedure: The levels of the released lactate dehydrogenase enzyme (LDH) in compound 4-treated MCF-7 cells were detected using the double-antibody sandwich ELISA technique (SunRed, Cat. N. 201-28-0094) to further estimate the cytotoxic impact of the tested compound 4 against MCF-7 cells. In brief, the compound 4-treated MCF-7 cancer cells were centrifuged, and 40 µL of the resulted supernatant was added to the tested wells. Following this, LDH-antibody (10 µL) and Streptavidin-HRP (50 µL) were transferred to each well for analysis. Subsequently, the 96-well plate was gently shaken, and incubated for 60 min at 37 °C. Following washing, chromogen solution A (50 µL) and chromogen solution B (50 µL) were transferred to each of the test wells, and the plates were left to incubate at 37 Celsius, out of the light, for 10 min. Next, each well was treated with stop solution (50 µL). Finally, the optical density, OD, for the tested plate was measured at 450 nm. Using the prepared standard curve, the concentration of the released LDH was estimated.

The subject of series [3] is cleaved caspase-3 (activated caspase-3). The experiment in a line: ELISA quantification of active (cleaved) caspase-3 in MCF-7 cells. The format is cell-based, human. To be noted: MCF-7, IC50 dose (338.33 µM), p < 0.001, result in words. The procedure:
The expression levels of the human active caspase-3 protein when cleaved at Asp175/Ser176 were measured in compound 4-treated MCF-7 cells, using an ELISA method (Invitrogen, Waltham, MA, USA, Catalog # KHO1091). In a nutshell, after incubating the tested compound 4 with MCF-7 cell cultures for 2 h, the supernatant (100 μL) was plated into a 96-well ELISA plate, and the resulting pellets were discarded. Each well was then suspended with 100 μL of a caspase-3 (active) antibody detection solution and left to incubate at room temperature for 1 h. The solution was then decanted from the wells and rinsed four times. Furthermore, HRP-Anti-Rabbit Antibody solution (100 µL) was added to each well, and the plate was incubated for 30 min at room temperature. A stabilized chromogen substrate (100 µL) was transferred to each well, and the plate was allowed to incubate for 30 min at room temperature, in darkness. At 450 nm, optical density readings were taken from the tested plate after adding 100 µL of stop solution to each well. Utilizing a standard curve, the quantity of active caspase-3 protein in the treated MCF-7 cells was calculated.

Another series deals with wi38 cells. The experiment in a line: MTT viability test on normal WI38 lung cells. The format is cell-based, human. The procedure:
(§1) The human cells that were utilized in the study included breast cancer cells, specifically the MCF-7 cell lines, along with normal lung cells, specifically the WI38 cell lines. These cell lines were taken from the American Type Culture Collection (ATCC). These cells were maintained in RPMI media with penicillin (100 U/mL), glutamine, 10% fetal bovine serum, and streptomycin ([…]) in a humidified incubator (5% CO2, 37 °C).
(§2) The half-suppressing dose (IC50) of the tested compounds was estimated via a dose-response curve following incubation for 24 h. To further determine whether the compounds were safe for use on living tissues, the MTT technique was used at concentrations ranging from 50 to 1000 µM to analyze the influence of the compounds on the viability of healthy WI38 cells. Results are presented as the mean of three independent evaluations of each value.
On the technique in general: Tetrazolium dyes change colour on reduction, which living cells bring about.

Series [4] deals with MCF-7 cells. The experiment in a line: MTT cytotoxicity test on MCF-7 cells. The format is cell-based. Conditions: Homo sapiens; for IC50: MCF7, 24 h, MTT, 24 h incubation, doses 50 to 1000 µM, mean of three, read-out: IC50 concentration, 50% inhibition of MCF-7 cell viability; for viability at 50 µM / viability at 100 µM / viability at 150 µM / viability at 300 µM / viability at 600 µM / viability at 1000 µM: MCF7, 24 h, read-out: Cell Viability %; for viability at 50 µM: MCF-7, dose 50 µM; for viability at 100 µM: MCF-7, dose 100 µM; for viability at 150 µM: MCF-7, dose 150 µM; for viability at 300 µM: MCF-7, dose 300 µM; for viability at 600 µM: MCF-7, dose 600 µM; for viability at 1000 µM: MCF-7, dose 1000 µM. How it is done: as §1
As indicated before, the prepared compounds (1–6) were tested for their capacity to inhibit the growth of MCF-7 cancer cells, employing the MTT experiment. In short, 1 × 10^5 of MCF-7 cells/mL were seeded into each well of a 96-well plate and cultured in the growth mixture at 37 °C overnight. The MCF-7 cells were then exposed to the test compounds at 37 °C for 24 h at doses that ranged from 50 to 1000 µM.
The cells were then observed under an inverted microscope (Leica DMI3000B, Mannheim, Germany) for toxicity markers in both the control and treated cells. Following this, the cells were subjected to MTT solution, which caused MTT to be converted into formazan (MTT’s metabolic product), the amount of which was directly proportionate to the total number of viable cells. The formazan crystal was then extracted from the cells by treating them with dimethyl sulfoxide. Microplate reader (Bio-Rad, Hercules, CA, USA) readings were taken at 570 nm, and the percentage of live MCF-7 cells was calculated using the following Formula (1) to indicate the influence of the studied compounds on the proliferation of the tested cells. Cell viability % = (Abs. of tested compound − Abs. of blank)/(Abs. of control − Abs. of blank) × 100 (1)
as §2

Another series deals with breast cancer cells. Set-up: method as in doi:10.31788/RJC.2022.1536976. Conditions: read-out: IC50 concentration against the viability of breast cancer cells; cited from earlier work.
[5] abbreviates: IC50 concentration 24 h, with caspase-3 inhibitor Z-DEVD-FMK (50 μM, 1 h) pretreatment.

Take `CCCCCCOc1ccc(NC(=S)Nc2ccc(F)cc2)cc1` [Compound 4, 1-(4-fluorophenyl)-3-(4-(hexyloxy)phenyl)thiourea]: in the series with MCF-7 cells [1] (setting [5]), the “% DNA in Tail” value worked out at 14.37 ± 1.33 %, the “Olive Tail Moment (OTM)” value turned out to be 1.87 ± 0.34, the “Tail Length (PX)” value was found to be 7.13 ± 2.21 PX and the “Tail Moment” value is listed as 1.04 ± 0.04. The “Tail Moment” value with MCF-7 cells [1] (IC50 concentration, without caspase-3 inhibitor pretreatment, control 0.22 ± 0.02) is listed as 1.72 ± 0.05. In addition, the “Olive Tail Moment (OTM)” value with MCF-7 cells [1] (IC50 concentration, without caspase-3 inhibitor pretreatment, control 0.55 ± 0.02) is on record as 2.38 ± 0.06. Further, the “% DNA in Tail” value in the series with MCF-7 cells [1] (IC50 concentration, without caspase-3 inhibitor pretreatment, control 3.11 ± 1.73) is listed as 17.26 ± 2.34 %. Further, in the series with MCF-7 cells [1] (IC50 concentration, without caspase-3 inhibitor pretreatment, control 7.52 ± 1.82), the “Tail Length (PX)” value is reported as 6.67 ± 1.94 PX. In addition, the “LDH levels in treated MCF-7 cells” value in the series with MCF-7 cells [2] is 521.77 ± 30.8 U/L. Also, the “Cleaved caspase-3 (activated caspase-3) levels versus untreated cells” value in series [3] is on record as “significantly elevated”. In the series on wi38 cells (Homo sapiens, WI-38, doses 50 to 1000 µM), the IC50 stood at 1463 ± 4.78 µM. Also, the “Cytotoxic effects on normal human lung cells (wi38 cells)” value in the series on wi38 cells (result in words) is “no cytotoxic effects”. Besides, in the series with MCF-7 cells [4], the IC50 is 338.3 ± 1.52 µM, the viability at 50 µM amounted to 100 ± 2.24%, the viability at 100 µM worked out at 90.2 ± 2.78% and the viability at 150 µM stood at 48.1 ± 1.15%. Besides, in the series with MCF-7 cells [4], the viability at 300 µM stood at 21.2 ± 1.66%, the viability at 600 µM was 18.3 ± 1.92% and the viability at 1000 µM was 7.28 ± 2.56%.

In the case of `C=CCNC(=S)NC(=O)c1ccc([N+](=O)[O-])cc1` [4-nitrobenzoyl-3-allylthiourea], the IC50 in the series with breast cancer cells is 225 µM.

For the compound `CCCCCCCCCCCCCCCCOc1ccc(NC(=S)Nc2ccc(F)cc2)cc1` [Compound 6, 1-(4-fluorophenyl)-3-(4-(hexadecyloxy)phenyl)thiourea], in the series with MCF-7 cells [4], the IC50 was found to be 711.9 ± 2.5 µM, the viability at 50 µM was determined as 96.4 ± 2.63%, the viability at 100 µM stood at 91.7 ± 2.47% and the viability at 150 µM is 84.1 ± 1.83%. In the series on MCF-7 cells [4], the viability at 300 µM was 79.2 ± 2.64%, the viability at 600 µM came to 46.9 ± 2.34% and the viability at 1000 µM is 36.7 ± 1.66%.

As for `CCCCCCCCOc1ccc(NC(=S)Nc2ccc(F)cc2)cc1` [Compound 5, 1-(4-fluorophenyl)-3-(4-(octyloxy)phenyl)thiourea], in the series with MCF-7 cells [4], the IC50 is 567.8 ± 4.28 µM, the viability at 50 µM amounted to 98.6 ± 2.53%, the viability at 100 µM turned out to be 96.5 ± 2.33% and the viability at 150 µM is 79.5 ± 1.92%. Further, in the series on MCF-7 cells [4], the viability at 300 µM worked out at 62 ± 1.84%, the viability at 600 µM was determined as 45.4 ± 2.74% and the viability at 1000 µM was 18 ± 1.45%.

Consider `CCCCCCCCCCCCCCCCOc1ccc(NC(=O)Nc2ccccc2)cc1` [Compound 3, 1-(4-(hexadecyloxy)phenyl)-3-phenylurea], for which, in the series on MCF-7 cells [4], the IC50 turned out to be 619.7 ± 4.33 µM, the viability at 50 µM turned out to be 97.3 ± 2.45%, the viability at 100 µM came out at 93.6 ± 1.82% and the viability at 150 µM was found to be 80.7 ± 2.44%. In the series on MCF-7 cells [4], the viability at 300 µM worked out at 64.9 ± 1.66%, the viability at 600 µM was determined as 56.7 ± 2.55% and the viability at 1000 µM amounted to 20.9 ± 2.75%.

`CCCCCCCCOc1ccc(NC(=O)Nc2ccccc2)cc1` [Compound 2, 1-(4-(octyloxy)phenyl)-3-phenylurea]: in the series with MCF-7 cells [4], the IC50 is 527.2 ± 1.28 µM, the viability at 50 µM came out at 98.8 ± 2.26%, the viability at 100 µM is 88.6 ± 2.22% and the viability at 150 µM is 72.2 ± 2.13%. Moreover, in the series on MCF-7 cells [4], the viability at 300 µM stood at 49.9 ± 1.77%, the viability at 600 µM was 38.3 ± 1.97% and the viability at 1000 µM was 23.3 ± 2.33%.

Consider `CCCCCCOc1ccc(NC(=O)Nc2ccccc2)cc1` [Compound 1, 1-(4-(hexyloxy)phenyl)-3-phenylurea], for which, in the series on MCF-7 cells [4], the IC50 is 726.6 ± 1.29 µM, the viability at 50 µM came to 98.6 ± 2.21%, the viability at 100 µM is 87.3 ± 1.34% and the viability at 150 µM was 80.6 ± 2.76%. Moreover, in the series with MCF-7 cells [4], the viability at 300 µM was 67.2 ± 1.13%, the viability at 600 µM turned out to be 57.2 ± 2.44% and the viability at 1000 µM is 36.4 ± 1.34%.
